Measurements: patent publication US8883797B2, “Metalloenzyme inhibitor compounds” (Viamet Pharmaceuticals, Inc., priority 2011, dated 2014)
Converted amounts (≈) assume the structure as drawn.

Assays:
C. albicans = experiment: Minimum Inhibitory Concentration (MIC) (C. albicans), CLSI M27-A2; assay type: cell-based; settings: Candida albicans; about 50% growth reduction; approx. 48 h at 35 °C
Experimental: A. Minimum Inhibitory Concentration (MIC) (C. albicans) Compounds of the present disclosure were assessed for their ability to inhibit the growth of common strains of fungus, C. albicans using a standardized procedure (CLSI M27-A2). Stock solutions of the test compounds and standards were prepared in DMSO at 1,600 μg/mL (C. albicans). Eleven, serial, one-half dilutions of compounds were prepared in 96-well plates in RPMI+MOPS. The assay concentration ranges were 8-0.001 μg/mL (C. albicans). Cell suspensions of C. albicans were prepared and added to each well at concentrations of approximately 3.7×10^3 colony-forming-units per milliliter (cfu/mL). All testing was in duplicate. The inoculated plates were incubated for approximately 48 h at 35±1° C. At the completion of incubation the wells of each plate were evaluated visually for the presence of fungal growth. […] For QC purposes C. krusei isolate ATCC 6258 (4.0×10^3 cfu/mL) was included in the VOR assay.

CYP2C9 = CYP2C9 (Homo sapiens (Human), UniProt P11712); experiment: biochemical
Experimental: (§1) B Inhibition of Liver Cytochrome P450 Enzymes
(§2) Solutions of each test compound were separately prepared at concentrations of 20000, 6000, 2000, 600, 200, and 60 μM by serial dilution with DMSO:MeCN (50:50 v/v). The individual test compound solutions were then diluted 20-fold with DMSO:MeCN:deionized water (5:5:180 v/v/v) to concentrations of 1000, 300, 100, 30, 10, and 3 μM. Mixtures of isozyme inhibitors (sulfaphenazole, tranylcypromine, and ketoconazole as specific inhibitors of isozymes 2C9, 2C19, and 3A4, respectively) were prepared containing each inhibitor at concentrations of 6000, 2000, 600, 200, 60, 20, 6, and 2 μM by serial dilution with DMSO:ACN (50:50 v/v). […]
(§3) Pooled human liver microsome suspension (20 mg/mL) was diluted with phosphate buffer to obtain a 5 mg/mL suspension. […] Separate stock solutions of each substrate were prepared in DMSO:MeCN (50:50 v/v), mixed, and diluted in phosphate buffer to obtain a single solution containing each substrate at five times its experimentally determined Km concentration. […]
(§4) Substrate solution and microsome suspension were combined in a 1:1 volume ratio, mixed, and distributed to reaction wells of a PCR plate. […] A portion of the supernatant was analyzed by gradient reverse-phase HPLC with detection by electrospray ionization triple quadrupole mass spectrometry in the positive ion mode. […]

CYP2C19 = CYP2C19 (Homo sapiens (Human), UniProt P33261); experiment: biochemical
Experimental: as §1, §2, §3, §4

CYP3A4 = CYP3A4 (Homo sapiens (Human), UniProt P08684); experiment: biochemical
Sequence of CYP3A4 (P08684 whole entry): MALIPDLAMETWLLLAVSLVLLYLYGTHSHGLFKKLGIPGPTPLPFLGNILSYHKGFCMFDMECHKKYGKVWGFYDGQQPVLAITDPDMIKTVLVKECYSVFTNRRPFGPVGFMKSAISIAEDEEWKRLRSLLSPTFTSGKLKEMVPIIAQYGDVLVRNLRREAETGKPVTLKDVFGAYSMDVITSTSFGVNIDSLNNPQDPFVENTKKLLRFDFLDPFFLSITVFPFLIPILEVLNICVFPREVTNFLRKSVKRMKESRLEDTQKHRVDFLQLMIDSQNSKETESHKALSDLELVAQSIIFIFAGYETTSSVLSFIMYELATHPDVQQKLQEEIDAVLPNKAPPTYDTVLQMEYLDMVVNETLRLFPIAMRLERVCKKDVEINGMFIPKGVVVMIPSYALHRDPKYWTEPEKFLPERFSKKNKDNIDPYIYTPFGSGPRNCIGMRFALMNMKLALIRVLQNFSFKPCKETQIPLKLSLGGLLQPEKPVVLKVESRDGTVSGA
Experimental: as §1, §2, §3, §4

Sequence of CYP2C19 (P33261 whole entry): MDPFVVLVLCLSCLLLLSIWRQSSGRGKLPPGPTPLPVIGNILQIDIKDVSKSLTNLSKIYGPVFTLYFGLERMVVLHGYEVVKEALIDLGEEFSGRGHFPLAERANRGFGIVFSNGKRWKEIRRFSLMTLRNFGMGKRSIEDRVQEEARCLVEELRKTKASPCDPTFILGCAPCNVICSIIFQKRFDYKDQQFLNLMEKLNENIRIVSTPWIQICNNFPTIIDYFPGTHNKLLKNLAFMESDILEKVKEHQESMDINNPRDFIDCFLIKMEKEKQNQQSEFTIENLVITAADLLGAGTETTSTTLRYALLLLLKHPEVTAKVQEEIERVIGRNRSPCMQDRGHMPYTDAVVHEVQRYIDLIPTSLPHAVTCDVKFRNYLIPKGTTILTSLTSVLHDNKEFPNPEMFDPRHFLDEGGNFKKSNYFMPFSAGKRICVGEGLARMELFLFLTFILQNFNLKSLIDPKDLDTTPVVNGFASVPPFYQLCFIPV
Sequence of CYP2C9 (P11712 whole entry): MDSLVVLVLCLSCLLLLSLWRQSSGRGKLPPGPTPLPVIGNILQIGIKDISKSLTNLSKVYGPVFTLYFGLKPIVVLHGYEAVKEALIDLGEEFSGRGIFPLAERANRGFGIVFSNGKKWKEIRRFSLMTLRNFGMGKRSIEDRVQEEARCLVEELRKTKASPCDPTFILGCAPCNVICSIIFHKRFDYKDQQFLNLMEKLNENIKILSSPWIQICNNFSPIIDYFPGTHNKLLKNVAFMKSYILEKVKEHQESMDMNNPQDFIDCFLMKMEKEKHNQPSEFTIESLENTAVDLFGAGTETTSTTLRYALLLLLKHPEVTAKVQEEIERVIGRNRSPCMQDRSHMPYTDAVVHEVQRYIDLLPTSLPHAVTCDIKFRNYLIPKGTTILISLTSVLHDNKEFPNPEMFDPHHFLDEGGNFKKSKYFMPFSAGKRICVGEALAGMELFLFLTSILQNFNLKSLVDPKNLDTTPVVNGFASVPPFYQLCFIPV

| SMILES | MIC (C. albicans) [µg/mL] | IC50 (CYP2C9) [µM] | IC50 (CYP2C19) [µM] | IC50 (CYP3A4) [µM] |
| --- | --- | --- | --- | --- |
| OC(Cn1cnnn1)(c1ccc(F)cc1F)C(F)(F)c1cnc2cc(Cl)ccc2n1 (stereo not drawn) [Compound 10, 1-(6-Chloroquinoxalin-2-yl)-2-(2,4-difluorophenyl)-1,1-difluoro-3-(1H-tetrazol-1-yl)propan-2-ol] | 0.125 (≈ 0.285 µM) | 42 | 29 | 45 |
| OC(Cn1cncn1)(Cn1cncn1)c1ccc(F)cc1F [Fluconazole, reference compound] | 0.5 (≈ 1.63 µM) |  |  |  |
| OC(Cn1cnnn1)(c1ccc(F)cc1F)C(F)(F)c1ccc2cc(Br)ccc2n1 (stereo not drawn) [Compound 9, 1-(6-Bromoquinolin-2-yl)-2-(2,4-difluorophenyl)-1,1-difluoro-3-(1H-tetrazol-1-yl)propan-2-ol] | 0.016 (≈ 0.0332 µM) | 13 | 12 | 11 |
